Like-named read-outs stand apart in the source and are kept apart here.
Experiments:
[1] = test system: lung cancer cell lines (e.g. NCI-H23, NCI-H1229); assay: Cell based assay, cell viability (CellTiter-Glo), lung cancer cell lines; conditions: Homo sapiens
Procedure: (§1) Commercially available bladder cancer, prostate cancer, lung cancer, breast cancer, blood cancer, pancreatic cancer, colorectal cancer, brain cancer, neuroblastoma, melanoma, liver cancer, cervical carcinoma, ovarian cancer, renal cancer, and papilloma cell lines were each treated with trypsin-EDTA and cultured, followed by being seeded in each well of a 96 well plate. After 24 hours of treatment at constant temperature, the respective cells were treated with the candidate compound so that a final concentration became 0 to 2 μM. The treated cells were additionally cultured for 72 hours, and cell viability was measured by using an ATP detection method (CellTiter-Glo® Luminescent Cell Viability Assay, Promega).

[2] = test system: renal cancer cell lines; assay: Cell based assay, cell viability (CellTiter-Glo), renal cancer cell lines; conditions: Homo sapiens; ACHN cells
Procedure: as §1

[3] = A549 cells, 72 hours treatment, CellTiter-Glo, read-out: IC50, lung cancer cell line A549
[4] = DMS 114 cells, 72 hours treatment, CellTiter-Glo, read-out: IC50, lung cancer cell line DMS 114
[5] = MRC-5 cells, 72 hours treatment, CellTiter-Glo, read-out: IC50
[6] = NCI-H23 cells, 72 hours treatment, CellTiter-Glo, read-out: IC50, lung cancer cell line NCI-H23
[7] = NCI-H460 cells, 72 hours treatment, CellTiter-Glo, read-out: IC50, lung cancer cell line NCI-H460
[8] = NCI-H522 cells, 72 hours treatment, CellTiter-Glo, read-out: IC50, lung cancer cell line NCI-H522
[9] = NCI-H1299 cells, 72 hours treatment, CellTiter-Glo, read-out: IC50, lung cancer cell line NCI-H1299
[10] = NCI-H1437 cells, 72 hours treatment, CellTiter-Glo, read-out: IC50, lung cancer cell line NCI-H1437
[11] = Lung cancer cell line A549, 72 hours, cell viability (CellTiter-Glo), read-out: IC50, A549
[12] = Lung cancer cell line DMS 114, 72 hours, cell viability (CellTiter-Glo), read-out: IC50, DMS 114
[13] = Lung cancer cell line NCI-H23, 72 hours, cell viability (CellTiter-Glo), read-out: IC50, NCI-H23
[14] = Lung cancer cell line NCI-H460, 72 hours, cell viability (CellTiter-Glo), read-out: IC50, NCI-H460
[15] = Lung cancer cell line NCI-H522, 72 hours, cell viability (CellTiter-Glo), read-out: IC50, NCI-H522
[16] = Lung cancer cell line NCI-H1299, 72 hours, cell viability (CellTiter-Glo), read-out: IC50, NCI-H1299
[17] = Lung cancer cell line NCI-H1437, 72 hours, cell viability (CellTiter-Glo), read-out: IC50, NCI-H1437
[18] = MRC-5 (listed under Lung cancer cell line), 72 hours, cell viability (CellTiter-Glo), read-out: IC50, MRC-5

| IC50 [1, 3] [nM] | IC50 [1, 4] [nM] | IC50 [1, 6] [nM] | IC50 [1, 7] [nM] | IC50 [1, 8] [nM] | IC50 [1, 9] [nM] | IC50 [1, 10] [nM] | IC50 [2] [nM] | IC50 [1, 11] [nM] | IC50 [1, 12] [nM] | IC50 [1, 13] [nM] | IC50 [1, 14] [nM] | IC50 [1, 15] [nM] | IC50 [1, 16] [nM] | IC50 [1, 17] [nM] | SMILES | IC50 [1, 5] [nM] | IC50 [1, 18] [nM] |
| --- | --- | --- | --- | --- | --- | --- | --- | --- | --- | --- | --- | --- | --- | --- | --- | --- | --- |
| > 2000 | > 2000 | 1560 | > 2000 | > 2000 | > 2000 | > 10000 | > 2000 |  |  |  |  |  |  |  | COc1ccccc1[S+]([O-])c1[nH]c2c(Br)ccc(Cl)c2c(=O)c1C(C)=O (stereo not drawn) [Compound 15, 3-acetyl-8-bromo-5-chloro-2-((2-methoxyphenyl)sulfinyl)quinolin-4(1H)-one] | > 2000 |  |
| > 2000 | > 2000 | > 2000 | > 2000 | > 2000 | > 2000 | > 10000 | > 2000 |  |  |  |  |  |  |  | COc1cccc2[nH]c(SCc3ccc(S(F)(F)(F)(F)F)cc3)c(C(C)=O)c(=O)c12 [Compound 92, 3-acetyl-5-methoxy-2-((4-(pentafluoro--sulfanyl)benzyl)thio)quinolin-4(1H)-one] | > 2000 |  |
|  |  |  |  |  |  |  | > 2000 | > 2000 | > 2000 | > 2000 | > 2000 | > 2000 | > 2000 | > 10000 | CC(=O)c1c([S+]([O-])Cc2ccc(NS(C)(=O)=O)cc2)[nH]c2c(Br)ccc(Cl)c2c1=O (stereo not drawn) [Compound 103, N-(4-(((3-acetyl-8-bromo-5-chloro-4-oxo-1,4-dihydroquinolin-2-yl)sulfinyl)methyl)phenyl)methane-sulfonamide] |  | > 2000 |
| > 2000 | > 2000 | > 2000 | > 2000 | > 2000 | > 2000 | > 10000 | > 2000 |  |  |  |  |  |  |  | CSc1c(C(C)=O)c(=O)c2c(Cl)ccc(Br)c2n1S(=O)(=O)c1ccc([N+](=O)[O-])cc1 [Compound 38, 3-acetyl-8-bromo-5-chloro-2-(methylthio)-1-((4-nitrophenyl)sulfonyl)quinolin-4(1H)-one] | > 2000 |  |
| > 2000 | > 2000 | > 2000 | > 2000 | > 2000 | > 2000 | > 10000 | > 2000 |  |  |  |  |  |  |  | CC(=O)c1c(S(C)(=O)=O)n(C(=O)c2ccc(Br)cc2)c2c(Br)ccc(Cl)c2c1=O [Compound 21, 3-acetyl-8-bromo-1-(4-bromobenzoyl)-5-chloro-2-(methylsulfonyl)quinolin-4(1H)-one] | > 2000 |  |
| > 2000 | > 2000 | > 2000 | > 2000 | > 2000 | > 2000 | > 10000 | > 2000 |  |  |  |  |  |  |  | CC(=O)c1c(S(C)(=O)=O)n(S(=O)(=O)c2ccc(C(C)(C)C)cc2)c2c(Br)ccc(Cl)c2c1=O [Compound 41, 3-acetyl-8-bromo-1-((4-(tert-butyl)phenyl)sulfonyl)-5-chloro-2-(methylsulfonyl)quinolin-4(1H)-one] | > 2000 |  |
| > 2000 | > 2000 | 1090 | 1460 | 1320 | 1480 | > 10000 | 1330 |  |  |  |  |  |  |  | Cc1cc(C[S+]([O-])c2[nH]c3c(Cl)ccc(Cl)c3c(=O)c2C(=O)C2CC2)no1 (stereo not drawn) [Compound 97, 5,8-dichloro-3-(cyclopropanecarbonyl)-2-(((5-methylisoxazol-3-yl)methyl)sulfinyl)quinolin-4(1H)-one] | 1430 |  |
| > 2000 | > 2000 | > 2000 | > 2000 | > 2000 | > 2000 | > 10000 | > 2000 |  |  |  |  |  |  |  | CC(=O)c1c([S+]([O-])C(C)C)[nH]c2c(Br)ccc(Cl)c2c1=O (stereo not drawn) [Compound 25, 3-acetyl-8-bromo-5-chloro-2-(isopropylsulfinyl)quinolin-4(1H)-one] | > 2000 |  |
| > 2000 | > 2000 | > 2000 | > 2000 | > 2000 | > 2000 | > 10000 | > 2000 |  |  |  |  |  |  |  | CC(=O)c1c([S+]([O-])Cc2ccc(C(F)(F)F)o2)[nH]c2c(F)ccc(F)c2c1=O (stereo not drawn) [Compound 81, 3-acetyl-5,8-difluoro-2-(((5-(trifluoromethyl)furan-2-yl)methyl)sulfinyl)quinolin-4(1H)-one] | > 2000 |  |
|  |  |  |  |  |  |  | > 2000 | > 2000 | > 2000 | 1330 | > 2000 | > 2000 | > 2000 | > 10000 | O=C(c1c([S+]([O-])Cc2ccc(SC(F)(F)F)cc2)[nH]c2c(Br)ccc(Cl)c2c1=O)C1CC1 (stereo not drawn) [Compound 101, 8-bromo-5-chloro-3-(cyclopropanecarbonyl)-2-((4-((trifluoromethyl)thio)benzyl)sulfinyl)quinolin-4(1H)-one] |  | > 2000 |
| > 2000 | > 2000 | > 2000 | > 2000 | > 2000 | > 2000 | > 10000 | > 2000 |  |  |  |  |  |  |  | CC(=O)c1c(SCc2cccc(C#N)c2)[nH]c2c(Br)ccc(Cl)c2c1=O [Compound 27, 3-(((3-acetyl-8-bromo-5-chloro-4-oxo-1,4-dihydroquinolin-2-yl)thio)methyl)benzonitrile] | > 2000 |  |
| > 2000 | > 2000 | > 2000 | > 2000 | > 2000 | > 2000 | > 10000 | > 2000 |  |  |  |  |  |  |  | CC(=O)c1c(SCC#N)[nH]c2c(Br)ccc(Cl)c2c1=O [Compound 66, 2-((3-acetyl-8-bromo-5-chloro-4-oxo-1,4-dihydroquinolin-2-yl)thio)acetonitrile] | > 2000 |  |
| > 2000 | > 2000 | > 2000 | > 2000 | > 2000 | > 2000 | > 10000 | > 2000 |  |  |  |  |  |  |  | O=C(c1ccccc1)c1c([S+]([O-])Cc2ccc(S(F)(F)(F)(F)F)cc2)[nH]c2c(F)ccc(F)c2c1=O (stereo not drawn) [Compound 87, 3-benzoyl-5,8-difluoro-2-((4-(pentafluoro--sulfanyl)benzyl)sulfinyl)quinolin-4(1H)-one] | > 2000 |  |
| > 2000 | > 2000 | 1310 | > 2000 | > 2000 | 1840 | > 10000 | > 2000 |  |  |  |  |  |  |  | CC(=O)c1c([S+](C)[O-])[nH]c2c(Cl)ccc(Cl)c2c1=O (stereo not drawn) [Compound 6, 3-acetyl-5,8-dichloro-2-(methylsulfinyl)quinolin-4(1H)-one] | > 2000 |  |
| > 2000 | > 2000 | > 2000 | > 2000 | > 2000 | > 2000 | > 10000 | > 2000 |  |  |  |  |  |  |  | CC(=O)c1c([S+]([O-])Cc2ccc(S(F)(F)(F)(F)F)cc2)[nH]c2c(F)ccc(F)c2c1=O (stereo not drawn) [Compound 80, 3-acetyl-5,8-difluoro-2-((4-(pentafluoro--sulfanyl)benzyl)sulfinyl)quinolin-4(1H)-one] | > 2000 |  |
| > 2000 | > 2000 | > 2000 | > 2000 | > 2000 | > 2000 | > 10000 | > 2000 |  |  |  |  |  |  |  | CC(=O)c1c(SCc2ccc(F)c(Cl)c2)[nH]c2c(Br)ccc(Cl)c2c1=O [Compound 30, 3-acetyl-8-bromo-5-chloro-2-((3-chloro-4-fluorobenzyl)thio)quinolin-4(1H)-one] | > 2000 |  |
| > 2000 | > 2000 | 900 | > 2000 | > 2000 | 1260 | > 10000 | > 2000 |  |  |  |  |  |  |  | CC(=O)c1c([S+](C)[O-])n(C(=O)c2ccc(Br)cc2)c2c(Br)ccc(Cl)c2c1=O (stereo not drawn) [Compound 9, 3-acetyl-8-bromo-1-(4-bromobenzoyl)-5-chloro-2-(methylsulfinyl)quinolin-4(1H)-one] | > 2000 |  |
| > 2000 | > 2000 | > 2000 | > 2000 | > 2000 | > 2000 | > 10000 | > 2000 |  |  |  |  |  |  |  | CC(=O)c1c(Sc2ccc(Br)cc2)[nH]c2c(Br)ccc(Cl)c2c1=O [Compound 16, 3-acetyl-8-bromo-2-((4-bromophenyl)thio)-5-chloroquinolin-4(1H)-one] | > 2000 |  |
| > 2000 | > 2000 | > 2000 | > 2000 | > 2000 | > 2000 | > 10000 | > 2000 |  |  |  |  |  |  |  | CC(=O)c1c([S+]([O-])C(C)c2ccccc2)[nH]c2c(Br)ccc(Cl)c2c1=O (stereo not drawn) [Compound 26, 3-acetyl-8-bromo-5-chloro-2-((1-phenylethyl)sulfinyl)quinolin-4(1H)-one] | > 2000 |  |
| > 2000 | > 2000 | > 2000 | > 2000 | > 2000 | > 2000 | > 10000 | > 2000 |  |  |  |  |  |  |  | CC(=O)c1c([S+]([O-])c2ccccc2)[nH]c2c(Br)ccc(Cl)c2c1=O (stereo not drawn) [Compound 13, 3-acetyl-8-bromo-5-chloro-2-(phenylsulfinyl)quinolin-4(1H)-one] | > 2000 |  |
| > 2000 | > 2000 | > 2000 | > 2000 | > 2000 | > 2000 | > 10000 | > 2000 |  |  |  |  |  |  |  | CC(C)C(=O)c1c([S+]([O-])Cc2ccc(SC(F)(F)F)cc2)[nH]c2c(F)ccc(F)c2c1=O (stereo not drawn) [Compound 85, 5,8-difluoro-3-isobutyryl-2-((4-((trifluoromethyl)thio)benzyl)sulfinyl)quinolin-4(1H)-one] | > 2000 |  |

| SMILES | IC50 [1, 3] [nM] | IC50 [1, 4] [nM] | IC50 [1, 6] [nM] | IC50 [1, 7] [nM] | IC50 [1, 8] [nM] | IC50 [1, 9] [nM] | IC50 [1, 10] [nM] | IC50 [2] [nM] | IC50 [1, 11] [nM] | IC50 [1, 12] [nM] | IC50 [1, 13] [nM] | IC50 [1, 14] [nM] | IC50 [1, 15] [nM] | IC50 [1, 16] [nM] | IC50 [1, 17] [nM] | IC50 [1, 5] [nM] | IC50 [1, 18] [nM] |
| --- | --- | --- | --- | --- | --- | --- | --- | --- | --- | --- | --- | --- | --- | --- | --- | --- | --- |
| CC(=O)c1c([S+]([O-])Cc2ccccc2)nc2c(Br)ccc(Cl)c2c1O (stereo not drawn) [Compound 4] | 1970 | > 2000 | 920 | 1650 | > 2000 | 1400 | > 2000 | > 2000 |  |  |  |  |  |  |  | 910 |  |

From patent US11464770B2, “Anticancer pharmaceutical composition” (NATIONAL CANCER CENTER, priority 2016, dated 2022)
